According to patent publication US20240316146A1, “METHODS OF REDUCING NEUROPATHY AND NEUROPATHIC SYMPTOMS AND TREATING CANCER” (Bexion Pharmaceuticals Inc., priority 2021, published 2024):

System: PC-12 cells
Test: Viable cell counts, PC-12 cells
Type: cell-based, rat
Conditions: for cell viability (in words): 2 μM oxaliplatin alone
Procedure: The neurostimulatory, neuroprotective, and neurotrophic qualities of the SapC-phospholipid formulation (BXQ-350) were tested in vitro in two cell lines, i.e., PC-12 cells (derived from a pheochromocytoma of a rat adrenal medulla) and NS20Y cells (cholinergic cell line derived from a mouse neuroblastoma).
PC-12 cells (ATCC, catalogue number CRL-1721) and NS20Y cells (Millipore Sigma, catalogue number 08062517) were seeded overnight in 24-well plates containing 1×10^4 cells per well in 1 mL of DMEM (Gibco, catalog number 11965-092) supplemented with 10% FBS and PenStrep. Each agent tested was brought to solution, at its appropriate concentrations, in a dosing media consisting of high glucose, no glutamine, no calcium DMEM (Gibco, catalog number 21068-028) supplemented with 4 mM glutamine, 1 mM calcium gluconate and PenStrep. […] The seeding medium was completely removed from the cells before the dosing medium containing the testing agents was added.
PC-12 cells (ATCC, catalogue number CRL-1721) and NS20Y cells (Millipore Sigma, catalogue number 08062517) were seeded overnight in 24-well plates containing 1×10^4 cells per well in 1 mL of DMEM (Gibco, catalog number 11965-092) supplemented with 10% FBS and PenStrep. Each agent tested was brought to solution, at its appropriate concentrations, in a dosing media consisting of high glucose, no glutamine, no calcium DMEM (Gibco, catalog number 21068-028) supplemented with 4 mM glutamine, 1 mM calcium gluconate and PenStrep. BXQ-350 was tested at concentrations between 5 nM and 1 μM concentration of SapC. The seeding medium was completely removed from the cells before the dosing medium containing the testing agents was added.
The viability of the cytotoxic drug+BXQ-350 combination groups was about 50% of the BXQ-350 alone group.

SMILES: O=C([O-])C(=O)[O-].[NH-][C@@H]1CCCC[C@H]1[NH-].[Pt+4] (relative stereo) [Oxaliplatin, cis-[(1R,2R)-1,2-cyclohexanediamine-N,N′][oxalato(2)-O,O′] platinum]
- cell viability (in words): negligible cell viability
- cell viability (2 μM oxaliplatin alone (FIG. 12)): less than 1%
- cell viability (in words) (listed as oxaliplatin): severely reduces cell viability
